Format in all cases: cell-based
Test [1] has as its target T1, EGFR-L858R/C797S (H1975-clone #8 cells) (Homo sapiens, UniProt P00533, C797S/L858R).
T1 construct: expressed in transfected cells; host or cells: H1975 (endogenous EGFR knocked out, clone #8)
Put plainly: Cell degradation of EGFR, HTRF assay, H1975-clone#8 (L858R/C797S) cells. Particulars: 16 h treatment; for DC50: EGFR degradation. The protocol:
The EGFR over-expressed cells then underwent knockout, in which the EGFR targeting sgRNA was designed to only target the endogenous EGFR copies and preserve the exogenous EGFR copies. Followed by the knockout, the edited H1975 cells were seeded in 96 well plates at the concentration of […], cultured for about 2 weeks to allow single clones formation. The formed clones were screened by DNA sequencing and whole exon sequencing analysis for the desired edition.
(§1) H1975-#8 and BaF3-L858R cells are treated with compounds diluted in 0.1% DMSO cell culture medium on day 2, incubate for 16 h, 37° C., 5% CO2. the final concentration of compounds in all assay is start with 10 uM, 5-fold dilution, total 8 doses were included.
(§2) After 16 h treatment, for H1975-#8 cells, add 100 ul HTRF 1× lysis buffer to each well; for BaF3-L858R cells, add 20 μl 4× lysis buffer to each well; seal the plate and incubate 1 hour at room temperature on a plate shaker; Once the cells are lysed, 16 μL of cell lysate are transferred to a PE 384-well HTRF detection plate; 4 μL of pre-mixed HTRF antibodies are added to each well; Cover the plate with a plate sealer, spin 1000 rpm for 1 min, Incubate overnight at room temperature; Read on BMG PheraStar with HTRF protocol (337 nm-665 nm-620 nm).
(§3) High control=Cell group with added DMSO and without compound, indicating microplate readings without EGFR degradation;
(§4) Dmax is the maximum percentage of inhibition (degradation).
(§5) The IC50 (DC50) value of a compound can be obtained by fitting the following equation
(§6) Y=Bottom+(TOP−Bottom)/(1+((IC50/X)^hillslope))
(§7) Wherein, X and Y are known values, and IC50, Hillslope, Top and Bottom are the parameters obtained by fitting with software. […] The experimental data were fitted by calculating and analyzing with Dotmatics data analysis software.
(Time-resolved FRET reads energy transfer from a long-lived donor to a nearby acceptor.)

Test [2] deals with p-EGFR Del19/C797S (H1975-clone #23 cells) (Homo sapiens, UniProt P00533). Put plainly: Cell p-EGFR inhibition assay, HTRF, H1975-clone#23 (DEL19/C797S) cells. Particulars: 16 h treatment; for Imax (%): maximum percentage of pEGFR inhibition; for IC50: pEGFR inhibition. The method, then:
The EGFR over-expressed cells then underwent knockout, in which the EGFR targeting sgRNA was designed to only target the endogenous EGFR copies and preserve the exogenous EGFR copies. Followed by the knockout, the edited H1975 cells were seeded in 96 well plates at the concentration of 1 cell/well, cultured for about 2 weeks to allow single clones formation. The formed clones were screened by DNA sequencing and whole exon sequencing analysis for the desired edition.
(§8) H1975-#23 and BaF3-L858R cells are treated with compounds diluted in 0.1% DMSO cell culture medium on day 2, incubate for 16 h, 37° C., 5% CO2. the final concentration of compounds in all assay is start with 10 uM, 5-fold dilution, total 8 doses were included.
(§9) After 16 h treatment, for H1975-#23 cells, add 50 ul HTRF 1× lysis buffer to each well; for BaF3-L858R cells, add 20 μl 4× lysis buffer to each well; seal the plate and incubate 1 hour at room temperature on a plate shaker; Once the cells are lysed, 16 μL of cell lysate are transferred to a PE 384-well HTRF detection plate; 4 μL of pre-mixed HTRF antibodies are added to each well; Cover the plate with a plate sealer, spin 1000 rpm for 1 min, Incubate overnight at room temperature; Read on BMG PheraStar with HTRF protocol (337 nm-665 nm-620 nm).
(§10) High control=Cell group with added DMSO and without compound, indicating microplate readings without p-EGFR inhibited.
(§11) Imax is the maximum percentage of inhibition.
(§12) The IC50 value of a compound can be obtained by fitting the following equation.
as §7

Test [3] deals with T2, EGFR L858R (BaF3-L858R cells) (Homo sapiens, UniProt P00533, L858R).
T2 construct: host or cells: BaF3
Put plainly: Cell degradation of EGFR, HTRF assay, BaF3-L858R cells. As to conditions: 16 h treatment; for DC50: EGFR degradation. The method, then: (§13) BaF3-L858R (abbv. L858R) cell were purchased from Kangyuan Bochuang Biotechnology (Beijing) Co., Ltd.
as §1, §2, §3, §4, §5, §6, §7

The target in test [4] is T3, p-EGFR L858R (BaF3-L858R cells) (Homo sapiens, UniProt P00533, L858R).
T3 construct: host or cells: BaF3
Put plainly: Cell p-EGFR inhibition assay, HTRF, BaF3-L858R cells. Particulars: 16 h treatment; for Imax (%): maximum percentage of pEGFR inhibition; for IC50: pEGFR inhibition. The protocol: as §13, §8, §9, §10, §11, §12, §7

[5] abbreviates: maximum percentage of degradation.

The DC50 is the concentration at which degradation of the target reaches its halfway point. The low end stands for a more potent degrader, the high end for a less potent degrader. A word on the Dmax: it is the greatest extent of degradation seen. Lower therefore signals shallow degradation. In general, IC50 refers to the concentration that gives 50% inhibition.

In the case of `Cc1cc2cc(n1)-c1c(C)nn(C)c1OC[C@H]1CC[C@H](C1)CN1/C(=N/C2=O)Nc2ccc(N3CCN(C4CCN(c5cc(F)c([C@H]6CCC(=O)NC6=O)c(F)c5)CC4)C[C@H]3C)cc21` [Example 190, (R)-3-(2,6-difluoro-4-(4-((R)-3-methyl-4-((7^1R,7^3S,E)-1^1,1^3,2^6-trimethyl-3-oxo-5^2,5^3-dihydro-1^1H,5^1H-9-oxa-4-aza-5(2,1)-benzo[d]imidazola-2(2,4)-pyridina-1(4,5)-pyrazola-7(1,3)-cyclopentanacyclononaphane-5^6-yl)piperazin-1-yl)piperidin-1-yl)phenyl)piperidine-2,6-dione], the DC50 in test [1] came to 1.69 nM; in test [3], 3.11 nM. The Dmax in test [1] (setting [5]) turned out to be 94.9%; in test [3] (setting [5]), 88.2%. Further, the “Imax (%)” value in test [2] worked out at 100.67%; in test [4] it was 91.5%. The IC50 amounted to 1.2 nM in test [2] and 0.58 nM in test [4].
As for “3-((5-(4-((S)-2-(methoxymethyl)-4-((7^1R,7^3S,E)-1^1,1^3,2^6-trimethyl-3-oxo-5^2,5^3-dihydro-1^1H,5^1H-9-oxa-4-aza-5(2,1)-benzo[d]imidazola-2(2,4)-pyridina-1(4,5)-pyrazola-7(1,3)-cyclopentanacyclononaphane-5^6-yl)piperazin-1-yl)piperidin-1-yl)-4,6-dimethylpyridin-2-yl)oxy)piperidine-2,6-dione [Example 167]”, the DC50 in test [1] came to 4.33 nM; in test [3] it was 4.72 nM. Besides, the entries for the “Dmax (%)” value in test [1] (setting [5]) and in test [3] (setting [5]) were 88.56% and 83.25%, respectively. Besides, the “Imax (%)” value in test [2] was determined as 102.84%; in test [4], 98.09%. The results for the IC50 in test [2] and in test [4] were 3.01 nM and 6.86 nM, respectively.
For the molecule `COC[C@H]1CN(c2ccc3c(c2)N2C[C@@H]4CC[C@H](COc5c(c(C)nn5C)-c5cc(cc(C)n5)C(=O)/N=C/2N3)C4)CCN1C1CCN(c2ccc(OC3CCC(=O)NC3=O)cc2C)CC1` (stereo partly drawn) [Example 140, 3-(4-(4-((R)-2-(methoxymethyl)-4-((7^1R,7^3S,E)-1^1,1^3,2^6-trimethyl-3-oxo-5^2,5^3-dihydro-1^1H,5^1H-9-oxa-4-aza-5(2,1)-benzo[d]imidazola-2(2,4)-pyridina-1(4,5)-pyrazola-7(1,3)-cyclopentanacyclononaphane-5^6-yl)piperazin-1-yl)piperidin-1-yl)-3-methylphenoxy)piperidine-2,6-dione], the DC50 in test [1] worked out at 1.94 nM; in test [3], 3.04 nM. Also, the figures for the maximal degradation (Dmax) in test [1] (setting [5]) and in test [3] (setting [5]) were 85.6% and 93.3%, respectively. In addition, the “Imax (%)” value in test [2] turned out to be 101.57%; in test [4] it was 96.47%. Further, the results for the 50% inhibitory concentration (IC50) in test [2] and in test [4] were 1.03 nM and 6.86 nM, respectively.
`COC[C@H]1CN(c2ccc3c(c2)N2C[C@@H]4CC[C@H](COc5c(cnn5C)-c5cc(cc(C)n5)C(=O)/N=C/2N3)C4)CCN1C1CCN(c2cc(F)c([C@H]3CCC(=O)NC3=O)c(F)c2)CC1` [Example 64, (R)-3-(4-(4-((R)-4-((7^1R,7^3S,E)-1^1,2^6-dimethyl-3-oxo-5^2,5^3-dihydro-1^1H,5^1H-9-oxa-4-aza-5(2,1)-benzo[d]imidazola-2(2,4)-pyridina-1(4,5)-pyrazola-7(1,3)-cyclopentanacyclononaphane-5^6-yl)-2-(methoxymethyl)piperazin-1-yl)piperidin-1-yl)-2,6-difluorophenyl)piperidine-2,6-dione]: the DC50 is 1.87 nM in test [1] and 1.07 nM in test [3]. For the same molecule, the greatest degradation seen (Dmax) turned out to be 70% in test [1] (setting [5]) and 83.3% in test [3] (setting [5]). For the same molecule, the “Imax (%)” value in test [2] is 101.2%; in test [4] it was 101.9%. Also, the figures for the IC50 in test [2] and in test [4] were 0.7 nM and 3.2 nM, respectively.
As to `COCCn1nc(C)c2c1OC[C@H]1CC[C@H](C1)CN1/C(=N/C(=O)c3cc(C)nc-2c3)Nc2ccc(N3CCN(C4CCN(c5cc(F)c([C@H]6CCC(=O)NC6=O)c(F)c5)CC4)CC3)cc21` [Example 161, (R)-3-(2,6-difluoro-4-(4-(4-((7^1R,7^3S,E)-1^1-(2-methoxyethyl)-1^3,2^6-dimethyl-3-oxo-5^2,5^3-dihydro-1^1H,5^1H-9-oxa-4-aza-5(2,1)-benzo[d]imidazola-2(2,4)-pyridina-1(4,5)-pyrazola-7(1,3)-cyclopentanacyclononaphane-5^6-yl)piperazin-1-yl)piperidin-1-yl)phenyl)piperidine-2,6-dione], the DC50 turned out to be 2.96 nM in test [1] and 7.2 nM in test [3]. Moreover, the values for the Dmax in test [1] (setting [5]) and in test [3] (setting [5]) were 89.3% and 91.4%, respectively. For the same molecule, the “Imax (%)” value was determined as 95.04% in test [2] and 93.23% in test [4]. Also, the IC50 in test [2] is 0.49 nM; in test [4], 4.51 nM.
`COC[C@@H]1CN(c2ccc3c(c2)N2CC4CC[C@H](COc5c(cnn5C)-c5cc(cc(C)n5)C(=O)/N=C/2N3)C4)CCN1C1CCN(c2ccc(NC3CCC(=O)NC3=O)cc2C)CC1` (stereo partly drawn) [Example 118, 3-((4-(4-((S)-4-((7^1R,7^3S,E)-1^1,2^6-dimethyl-3-oxo-5^2,5^3-dihydro-1^1H,5^1H-9-oxa-4-aza-5(2,1)-benzo[d]imidazola-2(2,4)-pyridina-1(4,5)-pyrazola-7(1,3)-cyclopentanacyclononaphane-5^6-yl)-2-(methoxymethyl)piperazin-1-yl)piperidin-1-yl)-3-methylphenyl)amino)piperidine-2,6-dione]: the DC50 came out at 5.97 nM in test [1] and 2.64 nM in test [3]. Also, the values for the Dmax in test [1] (setting [5]) and in test [3] (setting [5]) were 73.7% and 79%, respectively. In addition, the “Imax (%)” value was determined as 100.2% in test [2] and 98.5% in test [4]. For the same molecule, the figures for the IC50 in test [2] and in test [4] were 1.3 nM and 7.3 nM, respectively.
Turning to `COC[C@H]1CN(c2cc3c(cc2C)N/C2=N\C(=O)c4cc(C)nc(c4)-c4c(C)nn(C)c4OC[C@H]4CC[C@H](C4)CN23)CCN1C1CCN(c2cc(F)c([C@H]3CCC(=O)NC3=O)c(F)c2)CC1` [Example 172, (R)-3-(2,6-difluoro-4-(4-((R)-2-(methoxymethyl)-4-((7^1R,7^3S,E)-1^1,1^3,2^6° 5^5-tetramethyl-3-oxo-5^2,5^3-dihydro-1^1H,5^1H-9-oxa-4-aza-5(2,1)-benzo[d]imidazola-2(2,4)-pyridina-1(4,5)-pyrazola-7(1,3)-cyclopentanacyclononaphane-5^6-yl)piperazin-1-yl)piperidin-1-yl)phenyl)piperidine-2,6-dione], the figures for the DC50 in test [1] and in test [3] were 0.909 nM and 5.09 nM, respectively. Also, the Dmax is 85.6% in test [1] (setting [5]) and 84.8% in test [3] (setting [5]). In addition, the “Imax (%)” value in test [2] is 103.44%; in test [4], 100%. Besides, the results for the IC50 in test [2] and in test [4] were 2.74 nM and 6.2 nM, respectively.
